This note sets out measurements from patent US20150099012A1, “METHODS FOR ACTIVATING RETROVIRUS IN LATENT INFECTED CELLS, AND COMPOUNDS FOR USE THEREIN” (Erasmus University Medical Center Rotterdam, priority 2012, published 2015).

The structures appear in SMILES notation. “Also recorded” adds a separate entry of the source.

Assay [1] relates to LEF1 binding at HIV LTR. Briefly: LEF1 ChIP at the HIV LTR in J-Lat cells. It is filed as cell-based. The conditions noted are these: latent J-Lat cells; FIG. 4D. The procedure:
(§1) (A) Schematic representation of strategy to explore nucleosome position changes and enrichment of LEF/b-catenin at the HIV LTR in its repressed state and after Wnt activation. Jurkat latent cells at 0, and 12 hours after stimulation with LiCl, BIO VPA, or LiCl and VPA together were crosslinked and sonicated to yield DNA fragments of approximately 150 bp. DNA accessibility was monitored by formaldehyde-assisted isolation of regulatory elements (FAIRE) while nucleosome occupancy was determined by histone H2B Chromatin immunoprecipitations (ChIPs). To determine enrichment of LEF, b-catenin, or Histone Acetyl H3, we performed ChIPs with antibodies specific for LEF1, b-catenin, Ac H3. (B) Wnt activation by treatment with LiCl/BIO is accompanied by an increase in DNA accessibility over the DHS1 of the HIV LTR. […] FAIRE results are presented as fold change respective to the unstimulated value (normalized to 1) for each primer pair. (D) b-catenin while absent from the LTR in the repressed state, directly binds to the LTR upon LiCl/BIO activation. LEF1 binding, while present on the LTR in the repressed state is enriched upon LiCl/BIO treatment. […] Immunoprecipitated DNA from ChIPs and phenol:chloroform extracted DNA from FAIRE were analyzed by qPCR using primer pairs specific for the HIV LTR nuc-0, DHS1, nuc-1, and nuc-2 regions, and control region amplifying upstream of the Axin2 gene. […]

Assay [2] has as its system HIV LTR DHS1 and nuc-1. Briefly: Histone H2B ChIP nucleosome occupancy at the HIV LTR. The assay is classed as cell-based. The conditions noted are these: latent J-Lat cells, 12 hours after stimulation; FIG. 4C. How it is done: as §1
In assay [3] the test system is HIV LTR DHS1 and nuc-1. Briefly: FAIRE DNA accessibility at the HIV LTR. The conditions noted are these: latent J-Lat cells, 12 hours after stimulation; FIG. 4B. It is filed as cell-based. The procedure: as §1
Assay [4] has as its system latent HIV LTR. Briefly: Activation of latent HIV LTR in J-Lat/S-Lat latently infected cell lines (GFP reporter, FACS). It is filed as cell-based, HIV-1. Conditions: single agents; J-Lat/S-Lat or 1G5 cells; FIG. 5. How it is done:
A) S-Lat 46, J-Lat P32, J-Lat A2, J-Lat 11.1, S-Lat 24, S-Lat 9 and […], and GFP expression was monitored by FACS analysis to determine activation of the latent LTR. B) J-Lat P32 and (C) S-Lat 30 Jurkats and SupT1 cell lines harbouring latently infected HIV were either untreated or treated with 2, 5 or 10 mM LiCl as indicated. Expression of HIV-LTR driven P24 and GFP, and endogenous Wnt target genes AXIN2, MMP9, TCF1, as well as control GAPDH and NFkB target genes TLR2 and ICAM1 was monitored by qRT-PCR 72 hours after treatment. Expression data are presented as fold induction normalized to Cyclophillin A control.
Expression data are presented as fold induction normalized to Cyclophillin A control.

Assay [5] relates to b-catenin recruitment to HIV LTR. Kind of assay: b-catenin ChIP at the HIV LTR in J-Lat cells. It is filed as cell-based. Conditions: latent J-Lat cells; FIG. 4D. How it is done:
as §1

Assay [6] deals with histone acetylation on the HIV LTR. Kind of assay: Histone Acetyl H3 ChIP at the HIV LTR in J-Lat cells. The assay is classed as cell-based. Conditions: latent J-Lat cells; FIG. 4D. How it is done: as §1

In the case of `O=C1Nc2cc(Br)ccc2/C1=C1/Nc2ccccc2/C1=N\O` [BIO, (2′Z,3′E)-6-Bromoindirubin-3′-oxime], the “enrichment of LEF1 at the HIV LTR (ChIP)” value in assay [1] was “enrichment of LEF1 at the HIV LTR”. Also, the “nucleosome occupancy / histone density at the HIV LTR (H2B ChIP)” value in assay [2] is reported as “decreased nucleosome occupancy at DHS1”. Also, the “DNA accessibility at the HIV LTR (FAIRE)” value in assay [3] is on record as “increase accessibility”. Moreover, in assay [4], the “de-repression / activation of latent HIV LTR” value is “de-repression of latent HIV LTR; also recorded: activates the LTR in latently HIV infected cells”. Further, in assay [5], the “recruitment of b-catenin to the HIV LTR (ChIP)” value was “recruitment of b-catenin to LTR DHS1 and nuc-1”. Moreover, in assay [6], the “histone acetylation on the LTR (Ac H3 ChIP)” value is “histone acetylation is increased on the LTR”.
